One data set has as its system Phaseolus vulgaris. In words: Phytotoxicity against Phaseolus vulgaris (kidney bean) assessed as necrosis of leaf at 100 ppm after 7 days in greenhouse conditions. Format: organism-based. As to conditions: in vivo, 168 h.
Data set [1] relates to Botrytis cinerea. The data set can be described thus: Fungicidal activity against benzimidazole-resistant Botryotinia fuckeliana infected kidney bean leaf at 100 ppm after 7 days in greenhouse conditions by detached leaf test. Format: functional.
Data set [2] deals with Botrytis cinerea. The data set can be described thus: Fungicidal activity against benzimidazole-resistant Botryotinia fuckeliana at 6.2 ppm after 48 hr by poisoned food technique. The class given is functional.
Data set [3] deals with Botrytis cinerea. The data set can be described thus: Fungicidal activity against benzimidazole-resistant Botryotinia fuckeliana at 200 ppm after 48 hr by poisoned food technique. Format: functional.
Data set [4] relates to Botrytis cinerea. The data set can be described thus: Fungicidal activity against benzimidazole-resistant Botryotinia fuckeliana at 25 ppm after 48 hr by poisoned food technique. Format: functional.

Consider `CCO/N=C/Nc1ccccc1`, for which the Activity entry is reported as “Non-toxic” in the data set with Phaseolus vulgaris; below 25% in the data set with Botrytis cinerea [1]; below 25% in the data set with Botrytis cinerea [2]; below 25% in the data set on Botrytis cinerea [3]; below 25% in the data set on Botrytis cinerea [4].
Turning to `CCO/N=C/Nc1ccccc1Cl`, the Activity result with Phaseolus vulgaris is on record as “<= 10%”; with Botrytis cinerea [1], below 25%; in the data set with Botrytis cinerea [2], below 25%; with Botrytis cinerea [3], 100%; in the data set with Botrytis cinerea [4] it was below 25%.
For `CCO/N=C/Nc1cccc(Cl)c1`, the Activity entry is “<= 10%” in the data set on Phaseolus vulgaris; below 25% in the data set with Botrytis cinerea [1]; below 25% in the data set on Botrytis cinerea [2]; 50% with Botrytis cinerea [3]; below 25% in the data set with Botrytis cinerea [4].
In the case of `CCO/N=C/Nc1ccc(Cl)cc1`, the Activity entry is “Non-toxic” with Phaseolus vulgaris; below 25% with Botrytis cinerea [1]; below 25% in the data set on Botrytis cinerea [2]; 70% in the data set on Botrytis cinerea [3]; below 25% with Botrytis cinerea [4].
As to `CCO/N=C/Nc1ccccc1CC`, the Activity result with Phaseolus vulgaris is reported as “Non-toxic”; in the data set with Botrytis cinerea [1] it was below 25%; in the data set with Botrytis cinerea [2], 26%; with Botrytis cinerea [3] it was 100%; with Botrytis cinerea [4] it was 100%.
On to `CCO/N=C/Nc1cccc(CC)c1`, for which the Activity result is listed as “Non-toxic” in the data set with Phaseolus vulgaris; below 25% with Botrytis cinerea [1]; below 25% in the data set on Botrytis cinerea [2]; 70% in the data set with Botrytis cinerea [3]; below 25% with Botrytis cinerea [4].
As to `CCO/N=C/Nc1ccc(CC)cc1`, the Activity result is reported as “Non-toxic” in the data set on Phaseolus vulgaris; below 25% in the data set with Botrytis cinerea [1]; below 25% in the data set with Botrytis cinerea [2]; 26% in the data set on Botrytis cinerea [3]; below 25% in the data set with Botrytis cinerea [4].
Take `CCO/N=C/Nc1ccccc1OCC`: the Activity entry in the data set on Phaseolus vulgaris is recorded as “Non-toxic”; with Botrytis cinerea [1], below 25%; with Botrytis cinerea [2] it was below 25%; in the data set on Botrytis cinerea [3], 100%; with Botrytis cinerea [4], 100%.
`CCO/N=C/Nc1cccc(OCC)c1`: the Activity result is reported as “Non-toxic” in the data set with Phaseolus vulgaris; below 25% with Botrytis cinerea [1]; below 25% in the data set with Botrytis cinerea [2]; 100% with Botrytis cinerea [3]; 26% in the data set with Botrytis cinerea [4].
On to `CCO/N=C/Nc1ccc(OCC)cc1`, for which the Activity entry with Phaseolus vulgaris is recorded as “Non-toxic”; with Botrytis cinerea [1] it was below 25%; with Botrytis cinerea [2], below 25%; in the data set on Botrytis cinerea [3] it was 50%; in the data set on Botrytis cinerea [4] it was below 25%.
Consider `CCO/N=C/Nc1cccc(Cl)c1Cl`, for which the Activity in the data set with Phaseolus vulgaris is given as 11%; with Botrytis cinerea [1], below 25%; with Botrytis cinerea [2], below 25%; in the data set on Botrytis cinerea [3] it was 100%; in the data set on Botrytis cinerea [4] it was below 25%.
With `CCO/N=C/Nc1ccc(Cl)cc1Cl`, the Activity entry is recorded as “<= 10%” with Phaseolus vulgaris; below 25% in the data set with Botrytis cinerea [1]; below 25% with Botrytis cinerea [2]; 100% in the data set on Botrytis cinerea [3]; below 25% with Botrytis cinerea [4].
As to `CCO/N=C/Nc1cc(Cl)ccc1Cl`, the Activity result with Phaseolus vulgaris is given as “Non-toxic”; in the data set on Botrytis cinerea [1], below 25%; with Botrytis cinerea [2] it was below 25%; in the data set on Botrytis cinerea [3], 70%; in the data set on Botrytis cinerea [4], below 25%.
On to `CCO/N=C/Nc1c(Cl)cccc1Cl`, for which the Activity is listed as above 31% with Phaseolus vulgaris; below 25% in the data set on Botrytis cinerea [1]; below 25% in the data set with Botrytis cinerea [2]; 90% in the data set with Botrytis cinerea [3]; below 25% in the data set on Botrytis cinerea [4].
With `CCO/N=C/Nc1ccc(Cl)c(Cl)c1`, the Activity in the data set with Phaseolus vulgaris is listed as 11%; in the data set with Botrytis cinerea [1] it was below 25%; in the data set with Botrytis cinerea [2], below 25%; in the data set with Botrytis cinerea [3], 70%; with Botrytis cinerea [4], below 25%.
With `CCO/N=C/Nc1c(C)cccc1C`, the Activity in the data set on Phaseolus vulgaris is reported as 11%; in the data set with Botrytis cinerea [1], below 25%; with Botrytis cinerea [2] it was below 25%; with Botrytis cinerea [3], below 25%; in the data set with Botrytis cinerea [4] it was below 25%.
As for `CCO/N=C/Nc1c(Cl)c(Cl)cc(Cl)c1Cl` [N'-ETHOXY-N-(2,3,5,6-TETRACHLOROPHENYL)FORMIMIDAMIDE], the Activity result is reported as “Non-toxic” with Phaseolus vulgaris; below 25% in the data set on Botrytis cinerea [1]; below 25% with Botrytis cinerea [2]; below 25% in the data set with Botrytis cinerea [3]; below 25% in the data set with Botrytis cinerea [4].
With `CCO/N=C/Nc1cc(Cl)c(Cl)cc1Cl` [N'-ETHOXY-N-(2,4,5-TRICHLOROPHENYL)FORMIMIDAMIDE], the Activity result in the data set on Phaseolus vulgaris is recorded as “Non-toxic”; with Botrytis cinerea [1] it was below 25%; in the data set on Botrytis cinerea [2] it was below 25%; with Botrytis cinerea [3], 26%; with Botrytis cinerea [4] it was below 25%.
As to `CCO/N=C/Nc1c(Cl)cc(Cl)cc1Cl` [N'-ETHOXY-N-(2,4,6-TRICHLOROPHENYL)FORMIMIDAMIDE], the Activity was 11% with Phaseolus vulgaris; below 25% in the data set on Botrytis cinerea [1]; below 25% in the data set with Botrytis cinerea [2]; 100% in the data set with Botrytis cinerea [3]; below 25% with Botrytis cinerea [4].
`CCO/N=C/Nc1cc(C)cc(C)c1OCC` [N'-ETHOXY-N-(2-ETHOXY-3,5-DIMETHYLPHENYL)FORMIMIDAMIDE]: the Activity entry with Phaseolus vulgaris is “Non-toxic”; with Botrytis cinerea [1], below 25%; with Botrytis cinerea [2], 50%; in the data set with Botrytis cinerea [3], 100%; with Botrytis cinerea [4], 100%.
`CCO/N=C/Nc1cc(Cl)c(Cl)c(Cl)c1` [N'-ETHOXY-N-(3,4,5-TRICHLOROPHENYL)FORMIMIDAMIDE]: the Activity entry with Phaseolus vulgaris is recorded as “Non-toxic”; in the data set on Botrytis cinerea [1], below 25%; in the data set with Botrytis cinerea [2], below 25%; with Botrytis cinerea [3], 26%; with Botrytis cinerea [4], below 25%.
As to `CCO/N=C/Nc1cc(OCC)c(OCC)c(OCC)c1` [N'-ETHOXY-N-(3,4,5-TRIETHOXYPHENYL)FORMIMIDAMIDE], the Activity entry in the data set on Phaseolus vulgaris is “Non-toxic”; with Botrytis cinerea [1] it was below 25%; in the data set with Botrytis cinerea [2], below 25%; in the data set on Botrytis cinerea [3], 100%; with Botrytis cinerea [4] it was 26%.
On to `CCO/N=C/Nc1ccc(OCC)cc1C` [N'-ETHOXY-N-(4-ETHOXY-2-METHYLPHENYL)FORMIMIDAMIDE], for which the Activity entry is recorded as “<= 10%” in the data set with Phaseolus vulgaris; below 25% in the data set on Botrytis cinerea [1]; below 25% in the data set on Botrytis cinerea [2]; below 25% with Botrytis cinerea [3]; below 25% in the data set on Botrytis cinerea [4].
Regarding `CCO/N=C/Nc1cc(C)c(OCC)c(C)c1` [N'-ETHOXY-N-(4-ETHOXY-3,5-DIMETHYLPHENYL)FORMIMIDAMIDE], the Activity entry in the data set with Phaseolus vulgaris is on record as “<= 10%”; in the data set with Botrytis cinerea [1] it was 50%; with Botrytis cinerea [2], 50%; in the data set on Botrytis cinerea [3] it was 100%; in the data set on Botrytis cinerea [4] it was 100%.
On to `CCO/N=C/Nc1ccc(OCC)c(C)c1` [N'-ETHOXY-N-(4-ETHOXY-3-METHYLPHENYL)FORMIMIDAMIDE], for which the Activity is given as 11% in the data set on Phaseolus vulgaris; below 25% with Botrytis cinerea [1]; below 25% in the data set with Botrytis cinerea [2]; 100% in the data set with Botrytis cinerea [3]; below 25% in the data set with Botrytis cinerea [4].
Take `CCO/N=C/Nc1cc(C)c(OCC)c(OCC)c1` [N-(3,4-DIETHOXY-5-METHYLPHENYL)-N'-ETHOXYFORMIMIDAMIDE]: the Activity result in the data set on Phaseolus vulgaris is given as “Non-toxic”; in the data set with Botrytis cinerea [1] it was 70%; with Botrytis cinerea [2], 100%; in the data set on Botrytis cinerea [3], 100%; in the data set with Botrytis cinerea [4], 100%.
As to `CCO/N=C/Nc1cc(Cl)cc(Cl)c1OCC` [N-(3,5-DICHLORO-2-ETHOXYPHENYL)-N'-ETHOXYFORMIMIDAMIDE], the Activity entry with Phaseolus vulgaris is reported as “Non-toxic”; in the data set with Botrytis cinerea [1] it was below 25%; in the data set with Botrytis cinerea [2], 70%; with Botrytis cinerea [3], 100%; in the data set on Botrytis cinerea [4] it was 90%.
Regarding `CCO/N=C/Nc1cc(Cl)c(OCC)c(Cl)c1` [N-(3,5-DICHLORO-4-ETHOXYPHENYL)-N'-ETHOXYFORMIMIDAMIDE], the Activity result is given as “Non-toxic” in the data set on Phaseolus vulgaris; 100% with Botrytis cinerea [1]; 90% with Botrytis cinerea [2]; 100% in the data set on Botrytis cinerea [3]; 100% in the data set on Botrytis cinerea [4].
Take `CCO/N=C/Nc1cc(Cl)c(C)c(Cl)c1` [N-(3,5-DICHLORO-4-METHYLPHENYL)-N'-ETHOXYFORMIMIDAMIDE]: the Activity result is on record as “Non-toxic” in the data set with Phaseolus vulgaris; below 25% in the data set with Botrytis cinerea [1]; below 25% in the data set on Botrytis cinerea [2]; below 25% in the data set on Botrytis cinerea [3]; below 25% with Botrytis cinerea [4].
As for `CCO/N=C/Nc1cc(Cl)c(OCC)c(OCC)c1` [N-(3-CHLORO-4,5-DIETHOXYPHENYL)-N'-ETHOXYFORMIMIDAMIDE], the Activity entry with Phaseolus vulgaris is “Non-toxic”; in the data set on Botrytis cinerea [1], 100%; with Botrytis cinerea [2], 100%; with Botrytis cinerea [3], 100%; in the data set with Botrytis cinerea [4], 100%.
`CCO/N=C/Nc1ccc(OCC)c(Cl)c1` [N-(3-CHLORO-4-ETHOXYPHENYL)-N'-ETHOXYFORMIMIDAMIDE]: the Activity entry in the data set with Phaseolus vulgaris is given as “Non-toxic”; in the data set on Botrytis cinerea [1] it was below 25%; in the data set on Botrytis cinerea [2], below 25%; in the data set on Botrytis cinerea [3], 100%; in the data set with Botrytis cinerea [4] it was 26%.
`CCO/N=C/Nc1ccc(C)c(Cl)c1` [N-(3-CHLORO-4-METHYLPHENYL)-N'-ETHOXYFORMIMIDAMIDE]: the Activity result in the data set with Phaseolus vulgaris is listed as “<= 10%”; in the data set on Botrytis cinerea [1] it was below 25%; in the data set with Botrytis cinerea [2] it was below 25%; in the data set on Botrytis cinerea [3] it was 100%; in the data set with Botrytis cinerea [4], 26%.
For the compound `CCO/N=C/Nc1ccc(Cl)cc1C` [N-(4-CHLORO-2-METHYLPHENYL)-N'-ETHOXYFORMIMIDAMIDE], the Activity is 11% with Phaseolus vulgaris; below 25% in the data set on Botrytis cinerea [1]; below 25% in the data set on Botrytis cinerea [2]; 70% with Botrytis cinerea [3]; below 25% in the data set with Botrytis cinerea [4].

Source of the values: ChEMBL document CHEMBL3045758, “Quantitative Structure-Activity Relationships of Fungicidal N-Phenylformamidoximes” (J Pestic Sci, 1992).
